# Test results from ChEMBL document CHEMBL5331104, “Discovery of BRD4-HDAC Dual Inhibitors with Improved Fungal Selectivity and Potent Synergistic Antifungal Activity against Fluconazole-Resistant Candida albicans” (J Med Chem, 2023).
# How the values were obtained:
# Candida albicans [1] = test: Antifungal activity against Candida albicans SC5314 assessed as fungal growth inhibition incubated for 24 hrs by broth dilution method; type: functional
# Candida albicans [2] = type: functional, 0304103; details: time 24 hrs
# Description: Synergetic antifungal activity against Candida albicans 0304103 assessed as fractional inhibitory concentration index incubated for 24 hrs in the presence of fluconazole by checkerboard microdilution method
# Candida albicans [3] = test: microbe, parasite or virus in culture; type: functional; details: 0304103
# Description: Antifungal activity against Candida albicans 0304103 assessed as microbial growth inhibition
# HEL = test: Antiproliferative activity against human HEL cells incubated for 48 hrs by CCK8 assay; type: functional, cell-based
# Cryptococcus neoformans = test: Antifungal activity against Cryptococcus neoformans H99 assessed as fungal growth inhibition incubated for 24 hrs by broth dilution method; type: functional
# Candida albicans [4] = test: microbe, parasite or virus in culture; type: functional; details: 0304103, time 24 hrs
# Description: Synergetic antifungal activity against Candida albicans 0304103 assessed as microbial growth inhibition incubated for 24 hrs in the presence of fluconazole by checkerboard microdilution method
# K562 = test: Antiproliferative activity against human K562 cells incubated for 48 hrs by CCK8 assay; type: functional, cell-based; details: K562, 48 h
# Histone deacetylase 1 = Histone deacetylase 1 (Homo sapiens, UniProt Q13547); test: Inhibition of full-length recombinant human HDAC1 (1 to 482 residues) expressed in baculovirus infected insect cells using […] as substrate incubated for 30 mins by fluorescence based analysis; set-up: species or system Insect cell
# HL-60 = test: Antiproliferative activity against human HL-60 cells incubated for 48 hrs by CCK8 assay; type: functional, cell-based; details: HL-60, 48 h
# Histone deacetylase = test: Inhibition of total HDAC in human HUVEC cells using Boc-Lys(Ac)-AMC as substrate preincubated for 12 hrs followed by substrate addition measured after 6 hrs by microtiter plate reader analysis; type: cell-based
# in vitro = details: human, HUVEC cells
# Description: Cytotoxicity against HUVECs assessed as inhibition of cell growth incubated for 48 hrs by CCK8 assay
# Sequence of Histone deacetylase 1 (Q13547 whole entry, the tested form may be a part): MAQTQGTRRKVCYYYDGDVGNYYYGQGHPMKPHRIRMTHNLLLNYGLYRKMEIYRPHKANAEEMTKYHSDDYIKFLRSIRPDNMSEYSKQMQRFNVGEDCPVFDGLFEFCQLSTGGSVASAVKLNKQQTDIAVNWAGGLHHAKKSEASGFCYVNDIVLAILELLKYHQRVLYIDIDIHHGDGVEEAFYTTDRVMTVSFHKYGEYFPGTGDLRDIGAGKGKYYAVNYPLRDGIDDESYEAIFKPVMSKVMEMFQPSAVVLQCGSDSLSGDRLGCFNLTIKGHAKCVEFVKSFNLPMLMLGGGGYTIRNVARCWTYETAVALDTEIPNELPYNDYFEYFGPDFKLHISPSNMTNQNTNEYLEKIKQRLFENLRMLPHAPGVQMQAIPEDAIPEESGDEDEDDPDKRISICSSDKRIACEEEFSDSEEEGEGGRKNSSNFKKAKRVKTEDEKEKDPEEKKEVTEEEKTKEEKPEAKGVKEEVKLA
Structure (SMILES),MIC80 (Candida albicans [1]),fractional inhibitory concentration index (FICI) (Candida albicans [2]),MIC80 (Candida albicans [3]),IC50 (HEL),MIC80 (Cryptococcus neoformans),MIC80 (Candida albicans [4]),IC50 (K562),IC50 (Histone deacetylase 1),IC50 (HL-60),IC50 (Histone deacetylase),IC50 at 48 h (in vitro)
Cc1nnc2n1-c1ccc(Cl)cc1C(c1ccccc1Cl)=N[C@H]2CC(=O)NCc1ccc(C(=O)NO)cc1,> 64 µg/mL,0.16,> 64 µg/mL,> 10 µM,16 µg/mL,8 µg/mL,> 10 µM,1.9 µM,> 10 µM,3.4 µM,48 µM
Cc1nnc2n1-c1sc3c(c1C(c1ccc(Cl)cc1)=N[C@H]2CC(=O)Nc1ccc(C(=O)NO)cc1)CCCC3,> 64 µg/mL,0.078,> 64 µg/mL,0.29 µM,4 µg/mL,4 µg/mL,0.41 µM,0.72 µM,0.31 µM,0.047 µM,2.6 µM
Cc1nnc2n1-c1ccccc1C(c1ccc(Cl)cc1)=N[C@H]2CC(=O)Nc1ccc(/C=C/C(=O)NO)cc1,> 64 µg/mL,0.066,> 64 µg/mL,> 10 µM,8 µg/mL,4 µg/mL,1.5 µM,0.63 µM,4.7 µM,0.42 µM,8.1 µM
Cc1nnc2n1-c1ccc(Cl)cc1C(c1ccccc1Cl)=N[C@H]2CC(=O)Nc1ccc(CC(=O)NO)cc1,> 64 µg/mL,0.14,> 64 µg/mL,> 10 µM,16 µg/mL,8 µg/mL,8 µM,1.1 µM,9.7 µM,4.4 µM,19 µM
Cc1nnc2n1-c1sc3c(c1C(c1ccc(Cl)cc1)=N[C@H]2CC(=O)Nc1ccc(CC(=O)NO)cc1)CCCC3,> 64 µg/mL,0.07,> 64 µg/mL,4 µM,16 µg/mL,4 µg/mL,> 10 µM,1.4 µM,1.1 µM,2.2 µM,5.9 µM
Cc1sc2c(c1C)C(c1ccc(Cl)cc1)=N[C@@H](CC(=O)OC(C)(C)C)c1nnc(C)n1-2,> 64 µg/mL,>2,> 64 µg/mL,0.069 µM,> 64 µg/mL,64 µg/mL,1.4 µM,,0.15 µM,,0.58 µM
Cc1nnc2n1-c1ccccc1C(c1ccccc1)=N[C@H]2CC(=O)Nc1ccc(/C=C/C(=O)NO)cc1,> 64 µg/mL,0.094,> 64 µg/mL,> 10 µM,8 µg/mL,4 µg/mL,1.9 µM,0.1 µM,7 µM,0.016 µM,14 µM
Cc1nnc2n1-c1ccccc1C(c1ccc(Cl)cc1)=N[C@H]2CC(=O)Nc1ccc(C(=O)NO)cc1,> 64 µg/mL,31,> 64 µg/mL,> 10 µM,32 µg/mL,16 µg/mL,> 10 µM,0.11 µM,0.87 µM,0.16 µM,34 µM
Cc1nnc2n1-c1ccccc1C(c1ccc(Cl)cc1)=N[C@H]2CC(=O)Nc1ccc(CC(=O)NO)cc1,> 64 µg/mL,0.75,> 64 µg/mL,> 10 µM,32 µg/mL,32 µg/mL,> 10 µM,2.4 µM,1.1 µM,2.8 µM,19 µM
Cc1ccc(C2=N[C@@H](CC(=O)Nc3ccc(/C=C/C(=O)NO)cc3)c3nnc(C)n3-c3ccccc32)cc1,> 64 µg/mL,0.094,> 64 µg/mL,9 µM,8 µg/mL,4 µg/mL,1.4 µM,0.18 µM,4.2 µM,0.63 µM,14 µM
